Experimental data published in ChEMBL document CHEMBL4699460, “Integrating DNA-encoded chemical libraries with virtual combinatorial library screening: Optimizing a PARP10 inhibitor” (Bioorg Med Chem Lett, 2020).

Columns and labels:
[1] = target: T1, Protein mono-ADP-ribosyltransferase PARP15 (Homo sapiens) (UniProt Q460N3); assay: (§1) Inhibition of N-terminal GST-tagged human PARP15 (221 to 444 residues) expressed in Escherichia coli assessed as reduction in NAD+-dependent ADP ribosylation using histone as substrate at 10 uM incubated for 1 hr in presence of biotinylated NAD+ and activated DNA by chemiluminescence based microplate reader assay relative to control
T1 sequence (whole entry): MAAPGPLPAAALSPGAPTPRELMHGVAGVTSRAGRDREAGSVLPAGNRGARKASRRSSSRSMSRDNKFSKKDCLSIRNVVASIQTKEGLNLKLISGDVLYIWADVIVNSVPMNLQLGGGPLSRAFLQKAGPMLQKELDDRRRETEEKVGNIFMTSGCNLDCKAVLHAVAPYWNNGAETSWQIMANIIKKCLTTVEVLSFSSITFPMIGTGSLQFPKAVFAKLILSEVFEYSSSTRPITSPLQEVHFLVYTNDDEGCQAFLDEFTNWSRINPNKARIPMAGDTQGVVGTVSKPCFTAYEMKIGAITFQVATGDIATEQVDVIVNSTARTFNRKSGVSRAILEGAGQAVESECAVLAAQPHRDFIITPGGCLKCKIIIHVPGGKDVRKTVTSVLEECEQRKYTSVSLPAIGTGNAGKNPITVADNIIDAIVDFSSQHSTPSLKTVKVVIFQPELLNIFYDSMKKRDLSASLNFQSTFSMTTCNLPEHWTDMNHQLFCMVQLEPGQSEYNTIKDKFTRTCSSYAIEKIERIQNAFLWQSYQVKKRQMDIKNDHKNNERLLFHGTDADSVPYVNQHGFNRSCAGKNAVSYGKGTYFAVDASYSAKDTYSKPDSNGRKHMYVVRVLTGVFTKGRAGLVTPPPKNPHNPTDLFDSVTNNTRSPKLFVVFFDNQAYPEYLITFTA

[2] = target: Poly [ADP-ribose] polymerase 2 (Homo sapiens) (UniProt Q9UGN5); assay: as §1, with “GST tagged” for “GST-tagged”, “PARP2 (2” for “PARP15 (221”, “583” for “444”, “baculovirus infected Sf9 cells” for “Escherichia coli”
[3] = target: T2, Poly [ADP-ribose] polymerase tankyrase-1 (Homo sapiens) (UniProt O95271); assay: as §1, with “TNKS1 (1001” for “PARP15 (221”, “1327” for “444”, “baculovirus-infected Sf9 cells” for “Escherichia coli”
T2 sequence (whole entry): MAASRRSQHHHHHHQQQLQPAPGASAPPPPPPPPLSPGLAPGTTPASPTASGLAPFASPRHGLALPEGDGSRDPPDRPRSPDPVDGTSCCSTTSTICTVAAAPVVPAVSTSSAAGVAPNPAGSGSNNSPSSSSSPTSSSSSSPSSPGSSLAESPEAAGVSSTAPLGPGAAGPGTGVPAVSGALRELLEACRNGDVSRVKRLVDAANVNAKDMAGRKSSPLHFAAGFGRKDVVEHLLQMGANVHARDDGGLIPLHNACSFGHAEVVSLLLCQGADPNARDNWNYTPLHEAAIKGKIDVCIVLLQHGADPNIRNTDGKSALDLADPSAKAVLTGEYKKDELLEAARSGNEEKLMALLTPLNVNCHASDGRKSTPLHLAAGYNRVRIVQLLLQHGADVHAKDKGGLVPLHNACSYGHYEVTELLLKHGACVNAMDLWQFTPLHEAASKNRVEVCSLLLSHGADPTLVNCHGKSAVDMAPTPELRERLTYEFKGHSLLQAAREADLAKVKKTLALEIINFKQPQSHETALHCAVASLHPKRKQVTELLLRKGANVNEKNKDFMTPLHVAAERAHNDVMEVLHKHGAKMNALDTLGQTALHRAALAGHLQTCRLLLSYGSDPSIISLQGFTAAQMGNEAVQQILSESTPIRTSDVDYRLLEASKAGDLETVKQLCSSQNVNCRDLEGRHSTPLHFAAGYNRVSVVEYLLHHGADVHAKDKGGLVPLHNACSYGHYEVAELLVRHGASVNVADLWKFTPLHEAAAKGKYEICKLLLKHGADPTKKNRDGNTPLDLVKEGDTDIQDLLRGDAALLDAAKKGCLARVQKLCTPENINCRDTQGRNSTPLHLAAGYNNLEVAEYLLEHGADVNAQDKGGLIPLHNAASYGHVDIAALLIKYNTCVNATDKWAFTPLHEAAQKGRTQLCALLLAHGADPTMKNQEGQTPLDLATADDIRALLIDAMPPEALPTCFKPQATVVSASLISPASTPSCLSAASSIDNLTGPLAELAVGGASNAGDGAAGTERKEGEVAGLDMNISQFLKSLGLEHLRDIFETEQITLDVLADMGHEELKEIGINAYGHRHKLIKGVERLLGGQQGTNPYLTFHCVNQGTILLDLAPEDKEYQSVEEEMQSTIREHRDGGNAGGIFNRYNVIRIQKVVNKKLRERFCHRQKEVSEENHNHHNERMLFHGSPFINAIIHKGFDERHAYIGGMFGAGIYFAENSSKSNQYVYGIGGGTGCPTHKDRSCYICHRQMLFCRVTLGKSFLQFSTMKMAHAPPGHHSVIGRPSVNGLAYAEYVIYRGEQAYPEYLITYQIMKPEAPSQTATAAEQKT

Poly [ADP-ribose] polymerase 2 (Homo sapiens), sequence (Q9UGN5 whole entry): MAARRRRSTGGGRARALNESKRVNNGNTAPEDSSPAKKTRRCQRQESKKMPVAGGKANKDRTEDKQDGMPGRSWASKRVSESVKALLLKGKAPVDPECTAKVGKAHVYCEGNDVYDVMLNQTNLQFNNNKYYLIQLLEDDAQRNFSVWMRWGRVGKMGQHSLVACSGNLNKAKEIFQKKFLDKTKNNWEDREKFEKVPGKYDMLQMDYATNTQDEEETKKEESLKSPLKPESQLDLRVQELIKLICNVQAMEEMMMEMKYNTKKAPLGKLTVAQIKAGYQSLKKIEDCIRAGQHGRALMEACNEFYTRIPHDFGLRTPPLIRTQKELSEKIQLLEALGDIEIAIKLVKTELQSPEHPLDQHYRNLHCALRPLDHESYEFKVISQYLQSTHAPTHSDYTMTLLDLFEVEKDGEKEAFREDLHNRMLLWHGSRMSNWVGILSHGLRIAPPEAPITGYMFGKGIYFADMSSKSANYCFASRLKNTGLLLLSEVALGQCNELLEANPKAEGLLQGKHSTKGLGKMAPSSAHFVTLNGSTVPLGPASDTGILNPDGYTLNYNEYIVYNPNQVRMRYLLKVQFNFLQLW

Structure (SMILES) | inhibition [1] [%] | inhibition [2] [%] | inhibition [3] [%]
CC1(CNC(=O)COc2cccc3c2CCCC3=O)CCN(C(=O)CCc2nc3ccccc3[nH]c2=O)CC1 | 10 | 100 | > 50
CNC(=O)[C@H](CNC(=O)CCc1nc2ccccc2[nH]c1=O)NC(=O)c1ccc2c(c1)CCCC2=O | < 25 | < 25 | < 25
